Molecules are shown by their SMILES. Where two headings read alike, the source gives them in different places.

Data set [1] in a line: mouse plasma level after IP or oral administration. The data set is classed as in vivo. Particulars: mice; for time for which plasma concentrations of >0.13 microgram/ml are achieved: aqueous liposomal formulation.
For another data set, the target named is HIV-1 protease (Human immunodeficiency virus type 1 group M subtype B, UniProt P04585). Nature of the data set: biochemical. It is filed as biochemical. The method, then: IC50 values for enzyme inhibition are determined using HIV-1 and Amersham's HIV proteinase [^125 I]-scintillation proximity assay (SPA).
Amersham's HIV proteinase [^125 I]-SPA system is a commercial assay incorporating the scintillation proximity assay (SPA) principle available from Amersham International PLC, Bucks, England.
The SPA microspheres provided by Amersham have the substrate linked directly to the surface through a streptavidin-biotin link. The substrate is a 12 residue peptide designed specifically for this application utilizing current knowledge of known cleavage sites for the enzyme and analogue substrate studies. The sequence of the substrate is: [drawing 22]
The peptide is monoiodinated on the tyrosine residue and biotinylated through the epsilon-NH2 group on the lysine. It is linked to the SPA bead via a streptavidin-link. The beads are suspended in a buffer consisting of 5 mM DTT, 1 mM EDTA, 10% w/v glycerol, 0.05% W/v sodium azide, 0.01% v/v Triton X-100 in 25 mM sodium citrate buffer pH 5.5.
The enzyme cleaves at the Phe-Phe bond releasing the ^125 I fragment from the bead. This event causes the removal of detectable signal from the microsphere. […] The rate of reduction in signal is proportional to the activity of the enzyme. The obtained data is used to calculate the IC50 values found in Table 1.

For data set [2], the system named is HIV-1 strain IIIB in T lymphoid MT-2 cell lines. As to the kind of experiment: inhibition of growth of HIV-1 strain IIIB in T lymphoid MT-2 cell lines (metabolic MTT dye). The data set is classed as cell-based. Particulars: for inhibition at 0.01 µg/mL / inhibition at 0.039 µg/mL / inhibition at 0.156 µg/mL / inhibition at 0.625 µg/mL / inhibition at 2.5 µg/mL: Human immunodeficiency virus 1, IIIB, MT2, 120 h; for inhibition at 0.01 µg/mL: read-out: % Inhibition at concentration 0.010 μg/ml; for inhibition at 0.039 µg/mL: read-out: % Inhibition at concentration 0.039 μg/ml; for inhibition at 0.156 µg/mL: read-out: % Inhibition at concentration 0.156 μg/ml; for inhibition at 0.625 µg/mL: read-out: % Inhibition at concentration 0.625 μg/ml; for inhibition at 2.5 µg/mL: read-out: % Inhibition at concentration 2.5 μg/ml. Here is the method: In Table 2, data is shown for the ability of these compounds to inhibit growth of HIV-1 strain IIIB in T lymphoid MT-2 cell lines. The cell line is challenged by free virons selected to result in 90-95% cell death (CPE) by day 5. The protease inhibitor compound is then added in the stated concentration. After 5 days, the surviving cells are measured using metabolic MTT dye.
For orientation: Tetrazolium assays rely on reduction of a dye to a coloured formazan, in cell work by metabolically active cells.

Setting [3] is: Activity of Compounds as Enzyme Inhibitor.

As usually defined, the IC50 is the point on the concentration scale where inhibition reaches its midpoint. A lower IC50 goes with inhibition by little substance. In general, % Inhibition refers to the percentage by which the read-out fell short of the control. Higher therefore signals strong suppression. Turning to `CC[C@H](C)[C@H](NC(=O)[C@H](Cc1ccccc1)CC(O)CN1C[C@H]2CCCC[C@H]2C[C@H]1C(=O)NC(C)(C)C)C(=O)NCc1nc2ccccc2[nH]1` (single isomer, unassigned) [Example 24B, [3S-[2[alphaS*(1R*,2R*),gammaS*(or R*)],3alpha,4abeta,8abeta]]-N-[1-[[(1H-Benzimidazol-2-ylmethyl)amino]carbonyl]-2-methylbutyl]-3-[[(1,1-dimethylethyl)amino]carbonyl]decahydro-gamma-hydroxy-alpha-(phenylmethyl)-2-isoquinolinepentanamide], the entries for the “time for which plasma concentrations of >0.13 microgram/ml are achieved” value in data set [1] (IP 8.3 mg/kg) and in data set [1] (IP 16.6 mg/kg) were 2.8 h and 4.2 h, respectively. Further, in data set [1] (oral 16.6 mg/kg (FIG. 1)), the “time for which plasma concentrations >0.13 microgram/ml are maintained” value was 2 h. The compound further showed an IC50 against HIV-1 protease (setting [3]) of 0.0728 µM. Moreover, the “% Inhibition at concentration 0.010 μg/ml” value in data set [2] (0.010 μg/ml, 5 days) came out at 16.2%. Moreover, the “% Inhibition at concentration 0.039 μg/ml” value in data set [2] (0.039 μg/ml, 5 days) is given as 81.4%. Moreover, in data set [2] (0.156 μg/ml, 5 days), the “% Inhibition at concentration 0.156 μg/ml” value came to 93.0%. Further, the “% Inhibition at concentration 0.625 μg/ml” value in data set [2] (0.625 μg/ml, 5 days) amounted to 94.7%. For the same compound, the “% Inhibition at concentration 2.5 μg/ml” value in data set [2] (2.5 μg/ml, 5 days) is 94.9%. Further, the “inhibition of HIV-1 strain IIIB viral growth in MT-2 cell lines” value in data set [2] (concentration >0.13 microgram/ml) is greater than 90%.

Turning to `CC[C@H](C)[C@H](NC(=O)[C@H](Cc1ccccc1)CC(O)CN1C[C@H]2CCCC[C@H]2C[C@H]1C(=O)NC(C)(C)C)C(=O)NCc1nc2ccccc2[nH]1` (stereo partly drawn) [Example 23, [3S-[2[alphaS*(1R*,2R*),gammaR* (and S*)],3alpha,4abeta,8abeta]]-N-[1-[[(1H-Benzimidazol-2-ylmethyl)amino]carbonyl]-2-methylbutyl]-3-[[(1,1-dimethylethyl)amino]carbonyl]decahydro-gamma-hydroxy-alpha-(phenylmethyl)-2-isoquinolinepentanamide], 0.0728 µM corresponded to half-maximal inhibition on HIV-1 protease (setting [3]) (IC50). Also, the inhibition at 0.01 µg/mL in data set [2] (0.010 μg/ml, 5 days) was 13%. Also, the inhibition at 0.039 µg/mL in data set [2] (0.039 μg/ml, 5 days) is 78.7%. Moreover, in data set [2] (0.156 μg/ml, 5 days), the inhibition at 0.156 µg/mL is 93.6%. In addition, the inhibition at 0.625 µg/mL in data set [2] (0.625 μg/ml, 5 days) is 95.8%. In addition, in data set [2] (2.5 μg/ml, 5 days), the inhibition at 2.5 µg/mL worked out at 98.5%.

Consider `CC(C)(C)NC(=O)[C@@H]1C[C@@H]2CCCC[C@@H]2CN1CC(O)(CO)C[C@@H](Cc1ccccc1)C(=O)N[C@H]1CCCC[C@@H]1NC(=O)c1ccc2ccccc2n1` (stereo partly shown) [Example 35], for which half-maximal inhibition at HIV-1 protease (setting [3]) (IC50) required 0.0689 µM. The inhibition at 0.01 µg/mL in data set [2] (0.010 μg/ml, 5 days) was 0%. Also, the inhibition at 0.039 µg/mL in data set [2] (0.039 μg/ml, 5 days) amounted to 0%. The inhibition at 0.156 µg/mL in data set [2] (0.156 μg/ml, 5 days) turned out to be 1.97%. The inhibition at 0.625 µg/mL in data set [2] (0.625 μg/ml, 5 days) was found to be 0%. Also, the inhibition at 2.5 µg/mL in data set [2] (2.5 μg/ml, 5 days) amounted to 0%.

As to `CC(C)(C)NC(=O)[C@@H]1C[C@@H]2CCCC[C@@H]2CN1CC(O)C[C@@H](Cc1ccccc1)C(=O)N[C@H]1CCCC[C@@H]1NC(=O)c1ccc2ccccc2n1` (stereo partly drawn) [Example 37, [3S-[2[2S*(2R*,1R*)],3alpha,4abeta,8abeta]]-N-2-[[5-[3-[[(1,1-dimethylethyl)amino]carbonyl]octahydro-2(1H )-isoquinolinyl]-4-hydroxy-1-oxo-2-(phenylmethyl)pentyl]amino]cyclohexyl]-2-quinolinecarboxamide], on HIV-1 protease, 0.0718 µM corresponded to half-maximal inhibition (IC50). Further, the inhibition at 0.01 µg/mL in data set [2] (0.010 μg/ml, 5 days) is 0.95%. The inhibition at 0.039 µg/mL in data set [2] (0.039 μg/ml, 5 days) came to 0%. The inhibition at 0.156 µg/mL in data set [2] (0.156 μg/ml, 5 days) was found to be 0%. In addition, the inhibition at 0.625 µg/mL in data set [2] (0.625 μg/ml, 5 days) turned out to be 4.37%. For the same compound, the inhibition at 2.5 µg/mL in data set [2] (2.5 μg/ml, 5 days) was determined as 49.1%.

Consider `CC(C)(C)NC(=O)[C@@H]1C[C@@H]2CCCC[C@@H]2CN1CC(O)(CO)C[C@@H](Cc1ccccc1)C(=O)N[C@H]1CCCC[C@@H]1NC(=O)c1cc2ccccc2cn1` (stereo partly shown) [Example 40], for which the IC50 on HIV-1 protease (setting [3]) is 0.0551 µM. In addition, the inhibition at 0.01 µg/mL in data set [2] (0.010 μg/ml, 5 days) was 0%. Also, in data set [2] (0.039 μg/ml, 5 days), the inhibition at 0.039 µg/mL turned out to be 0%. Further, the inhibition at 0.156 µg/mL in data set [2] (0.156 μg/ml, 5 days) is 1.88%. In addition, the inhibition at 0.625 µg/mL in data set [2] (0.625 μg/ml, 5 days) was found to be 0.91%. Further, the inhibition at 2.5 µg/mL in data set [2] (2.5 μg/ml, 5 days) came out at 13.8%.

Compound `CC(C)(C)NC(=O)[C@@H]1C[C@@H]2CCCC[C@@H]2CN1CC(O)C[C@@H](Cc1ccccc1)C(=O)N[C@H]1CCCC[C@@H]1NC(=O)c1cc2ccccc2cn1` (stereo partly drawn) [Example 42, [3S-[2[alphaS*[1R*,1(2R*)]],3alpha,4abeta,8abeta]]-3-[[(1,1-Dimethylethyl)amino]carbonyl)octahydro-gamma-hydroxy-N-[2-[(3-isoquinolinylcarbonyl)amino]cyclohexyl]-alpha-(phenylmethyl)-2-(1H)-isoquinolinepentanamide] showed an IC50 against HIV-1 protease (setting [3]) of 0.079 µM. Also, the inhibition at 0.01 µg/mL in data set [2] (0.010 μg/ml, 5 days) was 4.33%. Further, the inhibition at 0.039 µg/mL in data set [2] (0.039 μg/ml, 5 days) was 0%. The inhibition at 0.156 µg/mL in data set [2] (0.156 μg/ml, 5 days) was 4.21%. For the same compound, the inhibition at 0.625 µg/mL in data set [2] (0.625 μg/ml, 5 days) came to 12.9%. Moreover, the inhibition at 2.5 µg/mL in data set [2] (2.5 μg/ml, 5 days) was 86.8%.

Take `CC[C@H](C)[C@H](NC(=O)[C@H](Cc1ccccc1)CC(O)CN1C[C@H]2CCCC[C@H]2C[C@H]1C(=O)NC(C)(C)C)C(=O)N[C@@H](C)c1nc2ccccc2[nH]1` (stereo partly drawn) [Example 51, [3S-[2alphaS*[1R*,1(R*),2R*]],3alpha,4abeta,8abeta]]-N-[1-[[[1H-benzimidazol-2-yl)ethyl]amino]carbonyl]-2-methylbutyl]-3-[[(1,1-dimethylethyl)amino]carbonyl]octahydro-gamma-hydroxy-alpha-phenylmethyl)-2(1H)-isoquinolinepentanamide]: the IC50 on HIV-1 protease was 0.128 µM. The inhibition at 0.01 µg/mL in data set [2] (0.010 μg/ml, 5 days) amounted to 1.67%. The inhibition at 0.039 µg/mL in data set [2] (0.039 μg/ml, 5 days) is 2.24%. Also, in data set [2] (0.156 μg/ml, 5 days), the inhibition at 0.156 µg/mL amounted to 10.4%. The inhibition at 0.625 µg/mL in data set [2] (0.625 μg/ml, 5 days) is 55.1%. For the same compound, in data set [2] (2.5 μg/ml, 5 days), the inhibition at 2.5 µg/mL came out at 72.9%.

The record behind these values is patent US5430150A, “Retroviral protease inhibitors” (American Cyanamid Company, priority 1992, dated 1995).
